Molecules are shown by their SMILES. Numbered stars: 1 amine (or outer) side, 2 acyl side, 3 side chain; on linkers, the order of the positions; unused ones are H or OH. Bridge positions count the residues as written; N and C are the ends. Square brackets hold non-standard residues; d marks the D form. Side chains are listed from the residue outwards. Peptide text beside a SMILES is read from it. * marks the point of attachment. C20 diacid = O=C(O)CCCCCCCCCCCCCCCCCCC(=O)*; C18 diacid = O=C(O)CCCCCCCCCCCCCCCCC(=O)*; γGlu = O=C(O)[C@H](CCC(=O)[*:2])N[*:1]; Hyp = O=C(O)[C@@H]1C[C@@H](O)CN1; AEEA = NCCOCCOCC(=O)O

In the assay the target is T1, human amylin receptor (Homo sapiens, UniProt O60896+P30988).
T1 construct: host or cells: CHO-K1/Ga15/AMY3 cells, further stably transfected with a CRE-luciferase plasmid
T1 sequence (P30988 25-474): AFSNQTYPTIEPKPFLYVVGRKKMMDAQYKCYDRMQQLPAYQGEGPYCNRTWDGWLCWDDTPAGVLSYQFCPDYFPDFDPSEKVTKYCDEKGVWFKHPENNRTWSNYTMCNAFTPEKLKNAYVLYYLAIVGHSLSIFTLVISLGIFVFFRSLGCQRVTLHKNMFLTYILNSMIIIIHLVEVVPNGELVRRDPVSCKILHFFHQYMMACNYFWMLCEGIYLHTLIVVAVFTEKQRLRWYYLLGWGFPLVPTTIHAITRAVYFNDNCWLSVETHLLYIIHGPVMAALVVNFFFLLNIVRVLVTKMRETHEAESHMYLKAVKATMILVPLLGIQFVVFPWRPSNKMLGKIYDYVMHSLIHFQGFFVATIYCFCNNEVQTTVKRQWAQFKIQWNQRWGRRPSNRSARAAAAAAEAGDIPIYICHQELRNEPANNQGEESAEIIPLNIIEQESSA
T1 sequence (O60896 24-148 partner): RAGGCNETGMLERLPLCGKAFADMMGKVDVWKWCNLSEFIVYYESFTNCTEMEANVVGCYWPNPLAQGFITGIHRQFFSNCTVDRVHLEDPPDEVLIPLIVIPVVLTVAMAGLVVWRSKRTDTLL
Put plainly: Luciferase assay of amylin derivatives in amylin receptor/CRE-luc CHO cell line. It is filed as cell-based. Particulars: CHO-K1/Ga15/AMY3 CRE-luc cells, 24 hours incubation, F12 medium containing 10% FBS; read-out: EC50.
Method: The experiment was intended to detect the activity or efficacy of the amylin derivatives on a human amylin receptor in vitro by luciferase assay.
50 μL of growth medium (F12 medium containing 10% FBS) was added into each well of a white 96-well plate, and the stably transfected amylin/CRE-lue CHO cells were inoculated into the white 96-well plate at a density of about 20,000 cells/well for activity determination.
Take `CC[C@H](C)[C@H](NC(=O)[C@@H]1CCCN1C(=O)[C@H](Cc1c[nH]cn1)NC(=O)[C@H](CC(C)C)NC(=O)[C@H](CC(N)=O)NC(=O)[C@H](CC(N)=O)NC(=O)[C@H](CO)NC(=O)[C@H](CO)NC(=O)[C@H](Cc1c[nH]cn1)NC(=O)[C@H](CCCNC(=N)N)NC(=O)[C@H](CC(C)C)NC(=O)[C@H](Cc1ccccc1)NC(=O)[C@H](CC(=O)O)NC(=O)[C@H](C)NC(=O)[C@H](CC(C)C)NC(=O)[C@H](CCCNC(=N)N)NC(=O)[C@H](CCC(N)=O)NC(=O)[C@@H](NC(=O)[C@H](C)NC(=O)[C@@H]1CSSC[C@H](NC(=O)[C@H](CCCCN)NC(=O)CC[C@H](NC(=O)CCCCCCCCCCCCCCCCCCC(=O)O)C(=O)O)C(=O)N[C@@H](CC(N)=O)C(=O)N[C@@H]([C@@H](C)O)C(=O)N[C@@H](C)C(=O)N[C@@H]([C@@H](C)O)C(=O)N1)[C@@H](C)O)C(=O)N[C@@H](CC(C)C)C(=O)N1CCC[C@H]1C(=O)N1CCC[C@H]1C(=O)N[C@H](C(=O)N[C@@H](CC(N)=O)C(=O)N[C@H](C(=O)NCC(=O)N[C@@H](CO)C(=O)N[C@@H](CC(N)=O)C(=O)N[C@H](C(=O)N1CCC[C@H]1C(N)=O)[C@@H](C)O)C(C)C)[C@@H](C)O` [PD162] ({C20 diacid-γGlu}-KCNTATCATQRLADFLRHSSNNLHPILPPTNVGSNTP-NH2; disulfide 2-7 (inferred)): the half-maximal effective concentration (EC50) (commonly the midpoint of the concentration-response curve) amounted to 0.035 nM.

As to `CC[C@H](C)[C@H](NC(=O)[C@@H]1CCCN1C(=O)CNC(=O)[C@H](CCCCNC(=O)COCCOCCNC(=O)COCCOCCNC(=O)CC[C@H](NC(=O)CCCCCCCCCCCCCCCCCCC(=O)O)C(=O)O)NC(=O)[C@H](CC(N)=O)NC(=O)[C@H](CC(N)=O)NC(=O)[C@H](CO)NC(=O)[C@H](CO)NC(=O)[C@H](Cc1c[nH]cn1)NC(=O)[C@H](CCCNC(=N)N)NC(=O)[C@H](CC(C)C)NC(=O)[C@H](Cc1ccccc1)NC(=O)[C@H](CC(=O)O)NC(=O)[C@H](C)NC(=O)[C@H](CC(C)C)NC(=O)[C@H](CCCNC(=N)N)NC(=O)[C@H](CCC(N)=O)NC(=O)[C@@H](NC(=O)[C@H](C)NC(=O)[C@@H]1CSSC[C@H](NC(=O)[C@@H](N)CCCNC(=N)N)C(=O)N[C@@H](CC(N)=O)C(=O)N[C@@H]([C@@H](C)O)C(=O)N[C@@H](C)C(=O)N[C@@H]([C@@H](C)O)C(=O)N1)[C@@H](C)O)C(=O)N[C@@H](CC(C)C)C(=O)N1CCC[C@H]1C(=O)N1CCC[C@H]1C(=O)N[C@H](C(=O)N[C@@H](CC(N)=O)C(=O)N[C@H](C(=O)NCC(=O)N[C@@H](CO)C(=O)N[C@@H](CC(N)=O)C(=O)N[C@H](C(=O)N1C[C@H](O)C[C@H]1C(N)=O)[C@@H](C)O)C(C)C)[C@@H](C)O` [PD083] (H-RCNTATCATQRLADFLRHSSNNK([AEEA-AEEA-γGlu-C20 diacid])GPILPPTNVGSNT[Hyp]-NH2; disulfide 2-7), the 50% effective concentration (EC50) turned out to be 0.037 nM.

Regarding `CC[C@H](C)[C@H](NC(=O)[C@H](CCCCNC(=O)COCCOCCNC(=O)COCCOCCNC(=O)CC[C@H](NC(=O)CCCCCCCCCCCCCCCCC(=O)O)C(=O)O)NC(=O)CNC(=O)[C@H](CC(C)C)NC(=O)[C@H](CC(N)=O)NC(=O)[C@H](CC(N)=O)NC(=O)[C@H](CO)NC(=O)[C@H](CO)NC(=O)[C@H](Cc1c[nH]cn1)NC(=O)[C@H](CCCNC(=N)N)NC(=O)[C@H](CC(C)C)NC(=O)[C@H](Cc1ccccc1)NC(=O)[C@H](CC(=O)O)NC(=O)[C@H](C)NC(=O)[C@H](CC(C)C)NC(=O)[C@H](CCCNC(=N)N)NC(=O)[C@H](CCC(N)=O)NC(=O)[C@@H](NC(=O)[C@H](C)NC(=O)[C@@H]1CSSC[C@H](NC(=O)[C@@H](N)CCCNC(=N)N)C(=O)N[C@@H](CC(N)=O)C(=O)N[C@@H]([C@@H](C)O)C(=O)N[C@@H](C)C(=O)N[C@@H]([C@@H](C)O)C(=O)N1)[C@@H](C)O)C(=O)N[C@@H](CC(C)C)C(=O)N1CCC[C@H]1C(=O)N1CCC[C@H]1C(=O)N[C@H](C(=O)N[C@@H](CC(N)=O)C(=O)N[C@H](C(=O)NCC(=O)N[C@@H](CO)C(=O)N[C@@H](CC(N)=O)C(=O)N[C@H](C(=O)N1C[C@H](O)C[C@H]1C(N)=O)[C@@H](C)O)C(C)C)[C@@H](C)O` [PD105] (H-RCNTATCATQRLADFLRHSSNNLGK([AEEA-AEEA-γGlu-C18 diacid])ILPPTNVGSNT[Hyp]-NH2; disulfide 2-7), the concentration giving a half-maximal response (EC50) came to 0.033 nM. `CC[C@H](C)[C@H](NC(=O)[C@@H]1CCCN1C(=O)[C@H](CCCCNC(=O)COCCOCCNC(=O)CC[C@H](NC(=O)CCCCCCCCCCCCCCCCCCC(=O)O)C(=O)O)NC(=O)[C@H](CC(C)C)NC(=O)[C@H](CC(N)=O)NC(=O)[C@H](CC(N)=O)NC(=O)[C@H](CO)NC(=O)[C@H](CO)NC(=O)[C@H](Cc1c[nH]cn1)NC(=O)[C@H](CCCNC(=N)N)NC(=O)[C@H](CC(C)C)NC(=O)[C@H](Cc1ccccc1)NC(=O)[C@H](CC(=O)O)NC(=O)[C@H](C)NC(=O)[C@H](CC(C)C)NC(=O)[C@H](CCCNC(=N)N)NC(=O)[C@H](CCC(N)=O)NC(=O)[C@@H](NC(=O)[C@H](C)NC(=O)[C@@H]1CSSC[C@H](NC(=O)[C@@H](N)CCCNC(=N)N)C(=O)N[C@@H](CC(N)=O)C(=O)N[C@@H]([C@@H](C)O)C(=O)N[C@@H](C)C(=O)N[C@@H]([C@@H](C)O)C(=O)N1)[C@@H](C)O)C(=O)N[C@@H](CC(C)C)C(=O)N1CCC[C@H]1C(=O)N1CCC[C@H]1C(=O)N[C@H](C(=O)N[C@@H](CC(N)=O)C(=O)N[C@H](C(=O)NCC(=O)N[C@@H](CO)C(=O)N[C@@H](CC(N)=O)C(=O)N[C@H](C(=O)N1C[C@H](O)C[C@H]1C(N)=O)[C@@H](C)O)C(C)C)[C@@H](C)O` [PD106] (H-RCNTATCATQRLADFLRHSSNNLK([AEEA-γGlu-C20 diacid])PILPPTNVGSNT[Hyp]-NH2; disulfide 2-7): the EC50 came out at 0.026 nM. `CC[C@H](C)[C@H](NC(=O)[C@@H]1CCCN1C(=O)CNC(=O)[C@H](CC(C)C)NC(=O)[C@H](CC(N)=O)NC(=O)[C@H](CC(N)=O)NC(=O)[C@H](CO)NC(=O)[C@H](CO)NC(=O)[C@H](Cc1c[nH]cn1)NC(=O)[C@H](CCCNC(=N)N)NC(=O)[C@H](CC(C)C)NC(=O)[C@H](Cc1ccccc1)NC(=O)[C@H](CC(=O)O)NC(=O)[C@H](C)NC(=O)[C@H](CC(C)C)NC(=O)[C@H](CCCNC(=N)N)NC(=O)[C@H](CCC(N)=O)NC(=O)[C@@H](NC(=O)[C@H](C)NC(=O)[C@@H]1CSSC[C@H](NC(=O)[C@H](CCCCN)NC(=O)COCCOCCNC(=O)CC[C@H](NC(=O)CCCCCCCCCCCCCCCCCCC(=O)O)C(=O)O)C(=O)N[C@@H](CC(N)=O)C(=O)N[C@@H]([C@@H](C)O)C(=O)N[C@@H](C)C(=O)N[C@@H]([C@@H](C)O)C(=O)N1)[C@@H](C)O)C(=O)N[C@@H](CC(C)C)C(=O)N1CCC[C@H]1C(=O)N1CCC[C@H]1C(=O)N[C@H](C(=O)N[C@@H](CC(N)=O)C(=O)N[C@H](C(=O)NCC(=O)N[C@@H](CO)C(=O)N[C@@H](CC(N)=O)C(=O)N[C@H](C(=O)N1C[C@H](O)C[C@H]1C(N)=O)[C@@H](C)O)C(C)C)[C@@H](C)O` [PD122] ({C20 diacid-γGlu-AEEA}-KCNTATCATQRLADFLRHSSNNLGPILPPTNVGSNT[Hyp]-NH2; disulfide 2-7): the EC50 stood at 0.048 nM.

Turning to `CC[C@H](C)[C@H](NC(=O)[C@@H]1CCCN1C(=O)[C@@H]1CCCN1C(=O)[C@H](CC(C)C)NC(=O)[C@H](CC(N)=O)NC(=O)[C@H](CC(N)=O)NC(=O)[C@H](CO)NC(=O)[C@H](CO)NC(=O)[C@H](Cc1c[nH]cn1)NC(=O)[C@H](CCCNC(=N)N)NC(=O)[C@H](CC(C)C)NC(=O)[C@H](Cc1ccccc1)NC(=O)[C@H](CC(=O)O)NC(=O)[C@H](C)NC(=O)[C@H](CC(C)C)NC(=O)[C@H](CCCNC(=N)N)NC(=O)[C@H](CCC(N)=O)NC(=O)[C@@H](NC(=O)[C@H](C)NC(=O)[C@@H]1CSSC[C@H](NC(=O)[C@H](CCCCN)NC(=O)CC[C@H](NC(=O)CCCCCCCCCCCCCCCCCCC(=O)O)C(=O)O)C(=O)N[C@@H](CC(N)=O)C(=O)N[C@@H]([C@@H](C)O)C(=O)N[C@@H](C)C(=O)N[C@@H]([C@@H](C)O)C(=O)N1)[C@@H](C)O)C(=O)N[C@@H](CC(C)C)C(=O)N1CCC[C@H]1C(=O)N1CCC[C@H]1C(=O)N[C@H](C(=O)N[C@@H](CC(N)=O)C(=O)N[C@H](C(=O)NCC(=O)N[C@@H](CO)C(=O)N[C@@H](CC(N)=O)C(=O)N[C@H](C(=O)N1CCC[C@H]1C(N)=O)[C@@H](C)O)C(C)C)[C@@H](C)O` [PD163] ({C20 diacid-γGlu}-KCNTATCATQRLADFLRHSSNNLPPILPPTNVGSNTP-NH2; disulfide 2-7 (inferred)), the 50% effective concentration (EC50) is 0.084 nM.

Source of the values: patent publication US20260166128A1, “HUMAN AMYLIN ANALOG, AND DERIVATIVE THEREOF AND USE THEREOF” (priority 2022, published 2026).
